Patent US11242334B2, “Heterocyclic compounds as kinase inhibitors, compositions comprising the heterocyclic compound, and methods of use thereof” (JS INNOPHARM (SHANGHAI) LTD, priority 2017, dated 2022)

Assays:
[1] = tested on: Colo205 cell line; test: Colo205 cell proliferation assay (MTT assay, WST-8 readout); type: cell-based; settings: Homo sapiens; IC50 values of growth inhibition in Colo 205 cells; 72 hours
Summary of the method: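 Colo205 cells were seeded at 5,000 cells/well in RPMI-1640 with 10% FBS and attached for 24 h at 37° C. They were then exposed for 72 h to compound at final 50 μM to 0.005 μM (0.5% DMSO). Viability was read as WST-8 absorbance at 450 nm after 2 h, and IC50 of growth inhibition was determined.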

[2] = molecular target: T1, human ERK2 (Homo sapiens, UniProt P28482); test: LanthaScreen TR-FRET enzymatic assay, ERK2; settings: IC50 values of ERK2 biochemical activity; 5 μM ATP, 400 nM ATF2-GFP substrate
T1 construct: recombinantly expressed as GST-tagged full-length protein purified from E. coli; GST; purchased Invitrogen PV3311; host or cells: E. coli
Summary of the method: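 GST-tagged full-length ERK2 from E. coli, activated with MAP2K1, was used at 20 ng/ml with 400 nM GFP-ATF2(19-96) and 5 μM ATP (near Km). Compound was pre-incubated 15 min, and the reaction ran 1 h at room temperature. pThr71 was detected by Tb-antibody TR-FRET ratio, with IC50 from sigmoid fitting against 1% DMSO.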

T1 sequence (P28482 whole entry): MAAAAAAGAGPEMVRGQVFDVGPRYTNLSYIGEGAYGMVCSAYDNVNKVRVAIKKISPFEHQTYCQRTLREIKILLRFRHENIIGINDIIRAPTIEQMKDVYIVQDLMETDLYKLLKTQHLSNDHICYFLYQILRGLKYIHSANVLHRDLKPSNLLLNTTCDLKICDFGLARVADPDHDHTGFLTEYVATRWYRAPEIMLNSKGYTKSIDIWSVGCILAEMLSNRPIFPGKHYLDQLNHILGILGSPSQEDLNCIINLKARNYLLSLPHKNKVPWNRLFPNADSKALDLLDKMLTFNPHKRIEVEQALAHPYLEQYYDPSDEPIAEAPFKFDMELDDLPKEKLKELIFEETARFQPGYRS

| SMILES | IC50 [1] | IC50 [2] |
| --- | --- | --- |
| COCCn1cc(-c2n[nH]c3ccc(-c4ccn([C@H](CO)c5ccc(F)c(Cl)c5)c(=O)c4)cc23)cn1 [Example 52, (S)-1-(1-(3-chloro-4-fluorophenyl)-2-hydroxyethyl)-4-(3-(1-(2-methoxyethyl)-1H-pyrazol-4-yl)-1H-indazol-5-yl)pyridin-2(1H)-one] | 1000 to 5000 nM | < 10 nM |
| Cc1cc(-c2n[nH]c3ccc(-c4ccn(Cc5ccccc5C(F)(F)F)c(=O)c4)cc23)ccn1 [Example 59, 4-(3-(2-methylpyridin-4-yl)-1H-indazol-5-yl)-1-(2-(trifluoromethyl)benzyl)pyridin-2(1H)-one] | 1000 to 5000 nM | < 10 nM |
| Cc1cc(-c2n[nH]c3ccc(-c4ccn(Cc5cccc(Cl)c5F)c(=O)c4)cc23)ccn1 [Example 63, 1-(3-chloro-2-fluorobenzyl)-4-(3-(2-methylpyridin-4-yl)-1H-indazol-5-yl)pyridin-2(1H)-one] | 500 to 1000 nM | < 10 nM |
| Cc1cc(-c2n[nH]c3ccc(-c4ccn(Cc5ccc(C#N)cc5)c(=O)c4)cc23)ccn1 [Example 64, 4-((4-(3-(2-methylpyridin-4-yl)-1H-indazol-5-yl)-2-oxopyridin-1(2H)-yl)methyl)benzonitrile] | 1000 to 5000 nM | < 10 nM |
| Cc1cc(-c2n[nH]c3ccc(-c4ccn(Cc5ccc(F)c(Cl)c5)c(=O)c4)cc23)ccn1 [Example 65, 1-(3-chloro-4-fluorobenzyl)-4-(3-(2-methylpyridin-4-yl)-1H-indazol-5-yl)pyridin-2(1H)-one] | 500 to 1000 nM | < 10 nM |
| Cc1cc(-c2n[nH]c3ccc(-c4ccn(Cc5cc(Cl)ccc5F)c(=O)c4)cc23)ccn1 [Example 66] | 500 to 1000 nM | < 10 nM |
| Cc1cc(-c2n[nH]c3ccc(-c4ccn(Cc5cccc(OC(F)(F)F)c5)c(=O)c4)cc23)ccn1 [Example 67, 4-(3-(2-methylpyridin-4-yl)-1H-indazol-5-yl)-1-(3-(trifluoromethoxy)benzyl)pyridin-2(1H)-one] | 1000 to 5000 nM | < 10 nM |
| Cc1cc(-c2n[nH]c3ccc(-c4ccn(Cc5cccc(F)c5)c(=O)c4)cc23)ccn1 [Example 68, 1-(3-fluorobenzyl)-4-(3-(2-methylpyridin-4-yl)-1H-indazol-5-yl)pyridin-2(1H)-one] | 1000 to 5000 nM | < 10 nM |
| Cc1cc(-c2n[nH]c3ccc(-c4ccn(Cc5ccc(Br)c(F)c5)c(=O)c4)cc23)ccn1 [Example 69, 1-(4-bromo-3-fluorobenzyl)-4-(3-(2-methylpyridin-4-yl)-1H-indazol-5-yl)pyridin-2(1H)-one] | 500 to 1000 nM | < 10 nM |
| Cc1cc(-c2n[nH]c3ccc(-c4ccn(Cc5cccc(C(F)(F)F)c5)c(=O)c4)cc23)ccn1 [Example 70, 4-(3-(2-methylpyridin-4-yl)-1H-indazol-5-yl)-1-(3-(trifluoromethyl)benzyl)pyridin-2(1H)-one] | 500 to 1000 nM | < 10 nM |
| Cc1cc(-c2n[nH]c3ccc(-c4ccn(Cc5cccc(C#N)c5)c(=O)c4)cc23)ccn1 [Example 71, 3-((4-(3-(2-methylpyridin-4-yl)-1H-indazol-5-yl)-2-oxopyridin-1(2H)-yl)methyl)benzonitrile] | 1000 to 5000 nM | < 10 nM |
| Cc1cc(-c2n[nH]c3ccc(-c4ccn(Cc5cc(F)ccc5F)c(=O)c4)cc23)ccn1 [Example 72, 1-(2,5-difluorobenzyl)-4-(3-(2-methylpyridin-4-yl)-1H-indazol-5-yl)pyridin-2(1H)-one] | 500 to 1000 nM | < 10 nM |
| Cc1cc(-c2n[nH]c3ccc(-c4ccn(Cc5cc(F)cc(C(F)(F)F)c5)c(=O)c4)cc23)ccn1 [Example 73, 1-(3-fluoro-5-(trifluoromethyl)benzyl)-4-(3-(2-methylpyridin-4-yl)-1H-indazol-5-yl)pyridin-2(1H)-one] | 500 to 1000 nM | < 10 nM |
| Cc1cc(-c2n[nH]c3ccc(-c4ccn(C(C)c5cc(F)cc(Br)c5)c(=O)c4)cc23)ccn1 (centres unmarked) [Example 74, 1-(1-(3-bromo-5-fluorophenyl)ethyl)-4-(3-(2-methylpyridin-4-yl)-1H-indazol-5-yl)pyridin-2(1H)-one] | 500 to 1000 nM | < 10 nM |
| Cc1cc(-c2n[nH]c3ccc(-c4ccn(Cc5cccc(Br)c5F)c(=O)c4)cc23)ccn1 [Example 75, 1-(3-bromo-2-fluorobenzyl)-4-(3-(2-methylpyridin-4-yl)-1H-indazol-5-yl)pyridin-2(1H)-one] | 500 to 1000 nM | < 10 nM |
| Cc1cc(-c2n[nH]c3ccc(-c4ccn(Cc5cc(F)c(F)c(F)c5)c(=O)c4)cc23)ccn1 [Example 76, 4-(3-(2-methylpyridin-4-yl)-1H-indazol-5-yl)-1-(3,4,5-trifluorobenzyl)pyridin-2(1H)-one] | 500 to 1000 nM | < 10 nM |

Second part, the compound after the results:

| IC50 [1] | IC50 [2] | SMILES |
| --- | --- | --- |
| ≤ 500 nM | < 10 nM | Cn1cc(-c2n[nH]c3ccc(-c4ccn([C@H](CO)c5cccc(Br)c5)c(=O)c4)cc23)cn1 [Example 45, (S)-1-(1-(3-bromophenyl)-2-hydroxyethyl)-4-(3-(1-methyl-1H-pyrazol-4-yl)-1H-indazol-5-yl)pyridin-2(1H)-one] |
| ≤ 500 nM | < 10 nM | Cn1cc(-c2n[nH]c3ccc(-c4ccn([C@H](CO)c5ccc(F)c(Br)c5)c(=O)c4)cc23)cn1 [Example 46, (S)-1-(1-(3-bromo-4-fluorophenyl)-2-hydroxyethyl)-4-(3-(1-methyl-1H-pyrazol-4-yl)-1H-indazol-5-yl)pyridin-2(1H)-one] |
| ≤ 500 nM | < 10 nM | Cn1cc(-c2n[nH]c3ccc(-c4ccn([C@H](CO)c5cccc(I)c5)c(=O)c4)cc23)cn1 [Example 47, (S)-1-(2-hydroxy-1-(3-iodophenyl)ethyl)-4-(3-(1-methyl-1H-pyrazol-4-yl)-1H-indazol-5-yl)pyridin-2(1H)-one] |
| 500 to 1000 nM | < 10 nM | CC(C)Oc1ccc(-c2n[nH]c3ccc(-c4ccn([C@H](CO)c5cccc(I)c5)c(=O)c4)cc23)cn1 [Example 48, (S)-1-(2-hydroxy-1-(3-iodophenyl)ethyl)-4-(3-(6-isopropoxypyridin-3-yl)-1H-indazol-5-yl)pyridin-2(1H)-one] |
| ≤ 500 nM | < 10 nM | Cc1cc(-c2n[nH]c3ccc(-c4ccn([C@H](CO)c5cccc(I)c5)c(=O)c4)cc23)ccn1 [Example 49, (S)-1-(2-hydroxy-1-(3-iodophenyl)ethyl)-4-(3-(2-methylpyridin-4-yl)-1H-indazol-5-yl)pyridin-2(1H)-one] |
| 500 to 1000 nM | < 10 nM | O=c1cc(-c2ccc3[nH]nc(-c4cnn(C5CC5)c4)c3c2)ccn1[C@H](CO)c1ccc(F)c(Cl)c1 [Example 50, (S)-1-(1-(3-chloro-4-fluorophenyl)-2-hydroxyethyl)-4-(3-(1-cyclopropyl-1H-pyrazol-4-yl)-1H-indazol-5-yl)pyridin-2(1H)-one] |
| ≤ 500 nM | < 10 nM | O=c1cc(-c2ccc3[nH]nc(-c4cnn(C(F)F)c4)c3c2)ccn1[C@H](CO)c1ccc(F)c(Cl)c1 [Example 51, (S)-1-(1-(3-chloro-4-fluorophenyl)-2-hydroxyethyl)-4-(3-(1-(difluoromethyl)-1H-pyrazol-4-yl)-1H-indazol-5-yl)pyridin-2(1H)-one] |
| 500 to 1000 nM | < 10 nM | Cc1cc(-c2n[nH]c3ccc(-c4ccn(Cc5cccc(Cl)c5)c(=O)c4)cc23)ccn1 [Example 53, 1-(3-chlorobenzyl)-4-(3-(2-methylpyridin-4-yl)-1H-indazol-5-yl)pyridin-2(1H)-one] |
| ≤ 500 nM | < 10 nM | Cc1cc(-c2n[nH]c3ccc(-c4ccn(Cc5cc(Br)ccc5F)c(=O)c4)cc23)ccn1 [Example 55, 1-(5-bromo-2-fluorobenzyl)-4-(3-(2-methylpyridin-4-yl)-1H-indazol-5-yl)pyridin-2(1H)-one] |
| 500 to 1000 nM | < 10 nM | Cc1cc(-c2n[nH]c3ccc(-c4ccn(Cc5ccc(F)c(Br)c5)c(=O)c4)cc23)ccn1 [Example 56, 1-(3-bromo-4-fluorobenzyl)-4-(3-(2-methylpyridin-4-yl)-1H-indazol-5-yl)pyridin-2(1H)-one] |
| ≤ 500 nM | < 10 nM | Cc1cc(-c2n[nH]c3ccc(-c4ccn(Cc5cccc(I)c5)c(=O)c4)cc23)ccn1 [Example 57, 1-(3-iodobenzyl)-4-(3-(2-methylpyridin-4-yl)-1H-indazol-5-yl)pyridin-2(1H)-one] |
| 500 to 1000 nM | < 10 nM | Cc1cc(-c2n[nH]c3ccc(-c4ccn(Cc5cc(F)cc(Cl)c5)c(=O)c4)cc23)ccn1 [Example 58, 1-(3-chloro-5-fluorobenzyl)-4-(3-(2-methylpyridin-4-yl)-1H-indazol-5-yl)pyridin-2(1H)-one] |
| 500 to 1000 nM | < 10 nM | Cc1cc(-c2n[nH]c3ccc(-c4ccn(Cc5ccccc5)c(=O)c4)cc23)ccn1 [Example 60, 1-benzyl-4-(3-(2-methylpyridin-4-yl)-1H-indazol-5-yl)pyridin-2(1H)-one] |
| 500 to 1000 nM | < 10 nM | Cc1cc(-c2n[nH]c3ccc(-c4ccn(Cc5ccc(F)c(F)c5)c(=O)c4)cc23)ccn1 [Example 61, 1-(3,4-difluorobenzyl)-4-(3-(2-methylpyridin-4-yl)-1H-indazol-5-yl)pyridin-2(1H)-one] |
| 500 to 1000 nM | < 10 nM | Cc1cc(-c2n[nH]c3ccc(-c4ccn(Cc5ccc(Cl)c(F)c5)c(=O)c4)cc23)ccn1 [Example 62, 1-(4-chloro-3-fluorobenzyl)-4-(3-(2-methylpyridin-4-yl)-1H-indazol-5-yl)pyridin-2(1H)-one] |
